Laboratory results as given in patent publication US11040056B2, “Benzimidazoles that enhance the activity of oligonucleotides” (The University of North Carolina at Chapel Hill, priority 2018, dated 2021).

Assays:
NIH-3T3-MDR cells = test: Alamar Blue cytotoxicity assay; assay type: cell-based; settings: 2 h exposure, then 24 h, FIG. 1E
Description: (§1) FIG. 1B-1E. Effects with SSOs. FIG. 1B Structure of UNC2383. FIG. 1C Compound 2383 enhances SSO effects. Cells were incubated in 24-well plates with 100 nM SSO623 or its mismatched control (MM) for 16 h in DMEM+10% FBS, rinsed and then treated with various concentrations of 2383 for 2 h. The cells were then rinsed and incubation continued for an additional 4 h in DMEM+10% FBS. Cells were rinsed twice in PBS and luciferase activity (RLU) and cell protein determined. The larger round symbol indicates the MM oligonucleotide. Means+/−SE. N=3. FIG. 1D Kinetics of 2383 action. Cells were preloaded with 100 nM SSO623 and then exposed to 2383 for various periods after which the compound was removed. The cells were further incubated and then luciferase and protein determined. The total time of incubation in each case was 6 h. FIG. 1E Cytotoxicity of 2383. HeLa Luc705 or NIH-3T3-MDR cells were exposed to 2383 as in (FIG. 1C) then incubated for 24 h in DMEM plus 10% FBS and tested using the Alamar Blue cytotoxicity assay. Means+/−SE. N=3.
SSO-mediated luciferase induction assays were conducted as previously described. (18) In short, HeLaLuc705 cells in 24 well culture plates were preincubated with SSO623 followed by brief treatment with the small molecule; at intervals thereafter, luciferase activity and protein content were determined. […] Cytotoxicity of 2383 was monitored using the Alamar Blue assay. […]

[1] = Alamar Blue cytotoxicity assay; assay type: cell-based; settings: human, HeLa Luc705 cells; Alamar Blue cytotoxicity; read-out: TC50
Description: as §1
(§2) FIG. 3. Effect and Cytotoxicity of Analogs. The effect of selected UNC2383 analogs on luciferase induction by SSO623 was measured as described in Methods and in the legend of FIG. 1B-1E. Cytotoxicity was measured using the Alamar Blue method as in FIG. 1E. MM10 is the effect of 10 uM compound in the presence of a mismatched oligonucleotide. Means and SE. N=3.
(§3) SSO-mediated luciferase induction assays were conducted as previously described. (18) In short, HeLaLuc705 cells in 24 well culture plates were preincubated with SSO623 followed by brief treatment with the small molecule; at intervals thereafter, luciferase activity and protein content were determined. ASO mediated inhibition of MDR1 gene expression utilized an Alexa 488 labeled anti-P-glycoprotein antibody and flow cytometry to measure Pgp expression as described. (20) The anti-MDR1 sequence is 5′-CCATCccgacctcgcGCTCC-3′(SEQ ID NO: 5) (all phosphorothiopate with 2-O-Me residues in capitals). Cytotoxicity of 2383 was monitored using the Alamar Blue assay. (30)

HeLa Luc705 cells = test: Alamar Blue cytotoxicity assay; assay type: cell-based
Description: as §1, §2, §3

EGFP654 transgenic mouse = test: In vivo EGFP splice correction in EGFP654 transgenic mice
Description: FIG. 10A-10E. In vivo effects-RNA. EGFP654 mice were treated with SSO623 or a mismatched control (MM) and then received UNC2383 or diluent (N=3). RT-PCR with gel analysis was used to detect correctly or incorrectly spliced EGFP mRNA. The gel images were quantitated using Fiji software. Gel image for liver FIG. 10A. The lower band (87 bp) is correctly spliced EGFP mRNA, while the upper band (160 bp) is uncorrected. FIG. 10B-10E Quantitation of splice correction in liver FIG. 10B, kidney FIG. 10C, intestine FIG. 10D, and lung FIG. 10E. The bars indicate the ratio of correctly spliced to incorrectly spliced mRNA×100. […] EGFP immunostaining was performed in liver, lung, and intestine tissue and analyzed by confocal microscopy. […]
Effects of UNC2383 on endosome stability were monitored in cell culture models as previously described. […] Live cells were imaged by fluorescence confocal microscopy with or without treatment with UNC2383 or its analogs. […] Co-localization of TAMRA labeled SSO 623 with marker proteins was quantitated using Fiji (ImageJ) software and expressed as a Manders' Correlation Coefficient. […] EGFP protein expression was monitored by immunostaining with an anti-EGFP antibody (Abcam) using techniques previously described. […]
PCR techniques. […] The PCR products were separated on 1.5% agarose gels and bands were visualized by staining with Gel RedTMand quantitated using a Biorad ChemiDoc XRS+ scanner. […]

## O=C(Nc1nc2ccccc2n1CCN1CCCC1)c1cc2cc(Cl)ccc2o1 [UNC2383]
NIH-3T3-MDR cells
  concentrations showing little toxicity: ≤ 10 µM
[1]
  CC50 at 2 h: 15 µM
HeLa Luc705 cells
  window between effective and toxic concentrations compared to UNC10217938: narrower
HeLa Luc705 cells; 2 h exposure, then 24 h, FIG. 1E
  concentrations showing little toxicity: ≤ 10 µM
HeLa Luc705 cells; ratio of cytotoxicity TC50 to luciferase induction EC50
  TC50/EC50: 7.5
EGFP654 transgenic mouse; 35 mg/kg SSO623 i.p. two days, then 5 mg/kg UNC2383 i.p., liver, kidney, lung, intestine, 5 h
  correctly spliced EGFP message (RT-PCR): increase in correctly spliced EGFP message
EGFP654 transgenic mouse; SSO623 plus UNC2383, bronchi, intestinal crypts, 24 h
  EGFP protein expression (immunostaining): expressed EGFP
